The nature of assay [1]: hydroxy radical scavenging, orthophenanthroline Fe2+ oxidation method. It is filed as biochemical. The procedure: The first extract of lingonberry from Example 7, containing 5.2 wt % of anthocyanin, 22.3 wt % of proanthocyanin, and 0.5 wt % of resveratrol, was dissolved in double-distilled water and diluted into solutions in serial concentrations of 0.5, 0.25, 0.125, 0.0625, 0.03125, 0.015625, and 0.0078125 mg/ml. Ascorbic acid was likewise diluted to serial concentrations of 2, 1, 0.5, 0.25, 0.125, and 0.0625 mg/ml. The anti-oxidation effect of lingonberry extracts was confirmed by determining the hydroxyl radical (.OH) and the scavenging effect of the test drug on the hydroxy radical using the orthophenanthroline Fe^2+ oxidation method.
The total reaction volume was 4.7 ml, and thus the final concentrations of ascorbic acid solution were 0.851, 0.426, 0.213, and 0.106 mg/ml, while the final concentrations of lingonberry extract were 0.106, 0.053, 0.027, 0.013 mg/ml. Measurements were obtained for five samples in each group, and the scavenging rates of .OH were calculated and averaged. In order to verify the reliability of this method, ascorbic acid, a known .OH scavenging agent was used as a positive control when evaluating the scavenging effect of the lingonberry extract on hydroxy radicals during the experiment.
In the reaction system of these experiments, the aqueous solution of lingonberry extract could bind with hydroxy radicals generated in the Fenton reaction, thus reducing oxidation of Fe^2+ by hydroxy radicals. Its effect on scavenging hydroxy radicals was evaluated by determining the absorbance value of the reaction system.

The subject of a further assay is yeast. Particulars: by activating Sir2 enzymatic expression; cited from earlier work.

In brackets after ≈: the same amount, converted by molar mass.

In the case of `O=C1O[C@H]([C@@H](O)CO)C(O)=C1O` [ascorbic acid], the “•OH scavenging rate (d)” value worked out at 24.44 ± 2.32 in assay [1] (final concentration 0.106 mg/ml), 25.55 ± 2.10 in assay [1] (final concentration 0.213 mg/ml), 40.49 ± 1.33 in assay [1] (final concentration 0.426 mg/ml) and 91.92 ± 0.77 in assay [1] (final concentration 0.851 mg/ml). In assay [1] (orthophenanthroline Fe2+ oxidation method), the “IC50, hydroxy radical scavenging” value was determined as 307.8 µg/mL (≈ 1750 µM).
For the compound `Oc1ccc(C=Cc2cc(O)cc(O)c2)cc1` [resveratrol], the “increase of life span” value in the assay with yeast was “about 70%”.

The values are drawn from patent US7939111B2, “Lingonberry extract, methods of preparing, and uses thereof” (Beijing Gingko-Group Biological Technology Co., Ltd., priority 2007, dated 2011).
